For data set [1] the following is noted: DOX alone or DOX co-treated with the compound.
For data set [2], the system named is Doxorubicin-induced cardiotoxicity. Briefly: Protection against Doxorubicin-induced cardiotoxicity / cardiac dysfunctions in vivo. Conditions: among the synthesized new kaurane analogues.
Data set [3] concerns cerebral ischemia animal model. Briefly: Cerebral ischemia animal model. Type of data set: in vivo. The following applies: in comparison of control.
Data set [4] concerns cardiac ischemia animal model by coronary ligation. Briefly: Cardiac ischemia animal model by coronary ligation. Type of data set: in vivo. The following applies: for area of infraction / cardiac contractility / number of micro-blood vessels: coronary ligation, in comparison of control; for function of failing heart due to acute coronary ligation / occurrence of arrhythmia induced by acute ischemia: in vivo. An excerpt: This invention disclosed that compound 1 and 2 can increased the function of failing heart due to acute coronary ligation.

Data set [5] relates to drug induced diabetes animal model. Briefly: Drug induced diabetes animal model with cardiomyopathy. Type of data set: in vivo. The following applies: cardiomyopathy developed after 4 weeks; treatment for 2 weeks. The source says: In other embodiment, this invention disclosed that in a drug induced diabetes animal model, cardiomyopathy was developed after 4 weeks. However, the cardiac inflammatory changes were diminished after treatment of compound 1 and 2 for 2 weeks.

In data set [6] the test system is cardiac toxicity animal induced by other drugs used for chemotherapy. Briefly: Cardiac toxicity animal induced by other chemotherapy drugs (anthracyclines: epirubicin, daunorubicin, aclarubicin). The following applies: cardiac toxicity induced by anthracyclines including epirubicin. Type of data set: in vivo.
In data set [7] the test system is chronic cardiac hypertrophy and heart failure animal induced by TAC. Briefly: Chronic cardiac hypertrophy and heart failure animal induced by TAC (Thoracic aorta constriction). Type of data set: in vivo. The following applies: for interstitial collagen deposition (histo-pathology) / number of myofibroblasts (histo-pathology) / size of cardiomyocytes (histo-pathology): treated 4 weeks, in comparing to control; for cardiac contractility: treated for consecutive 4 weeks after the surgery, in comparing of control animals. Here is the method: Furthermore, in an embodiment of this invention, a chronic cardiac hypertrophy and heart failure animal was induced by TAC (Thoracic aorta constriction) . The animal was treated with compound 1 and 2 for consecutive 4 weeks after the surgery.

The text below walks through data of patent US20220204437A1, “New Kaurane analogues, their preparation and therapeutically uses” (KEY PHARMA BIOMEDICAL INC., priority 2019, published 2022).

With `COc1cccc2c1C(=O)c1c(O)c3c(c(O)c1C2=O)C[C@@](O)(C(=O)CO)C[C@@H]3O[C@H]1C[C@H](N)[C@H](O)[C@H](C)O1` [DOX, Doxorubicin, reference compound], the “LC50 of DOX” value in data set [1] stood at 51.56 µM.

With `C[C@]12CC[C@@H]3C(CC[C@H]4[C@@]3(C)CCC[C@@]4(C)C(=O)O)(C1)[C@H](C(=O)O)[C@H]2O` [compound 1, (4R, 4aS, 7S, 8R, 9S, 11aS, 11lbS)-8-hydroxy-4,9, 11b-trimethyltetradecahydro-6a, 9-methanocyclohepta[a]naphthalene-4,7-dicarboxylic acid], in data set [2], the “protective activity against Doxorubicin-induced cardiotoxicity” value is “maximum protective activity”. Moreover, in data set [3], the area of infraction result is given as “significantly reduced”; the movement and behavers entry is given as “improved”. Besides, in data set [4], the area of infraction entry is on record as “reduced”, the cardiac contractility result was “significantly increased”, the “number of micro-blood vessels” value is listed as “increased” and the “function of failing heart due to acute coronary ligation” value is “increased”. Besides, the “occurrence of arrhythmia induced by acute ischemia” value in data set [4] is given as “reduced”. In addition, the “LC50 of DOX” value in data set [1] came out at 66.62 µM. Besides, the cardiac inflammatory changes result in data set [5] is listed as “diminished”. Moreover, the “effects in term of function and pathology” value in data set [6] was “Signiant beneficial effects”. Moreover, in data set [7], the “interstitial collagen deposition (histo-pathology)” value was “reduced”, the “number of myofibroblasts (histo-pathology)” value is recorded as “reduced”, the “size of cardiomyocytes (histo-pathology)” value is “significant reduction” and the cardiac contractility result is on record as “significantly enhanced”.

For `C[C@]12CC[C@@H]3C(CC[C@H]4[C@@]3(C)CCC[C@@]4(C)C(=O)O)(C1)[C@H](C=O)[C@H]2O` [compound 2, (4R, 4aS, 7S, 8R, 9S, 11aS, 11bS)-7-formyl-8-hydroxy-4,9, llb-trimethyltetradecahydro-6a, 9-methanocyclohepta[a]naphthalene-4-carboxylic acid], the “protective activity against Doxorubicin-induced cardiotoxicity” value in data set [2] was “maximum protective activity”. In data set [3], the area of infraction entry is recorded as “significantly reduced”; the movement and behavers entry is on record as “improved”. In data set [4], the area of infraction result is “reduced”, the cardiac contractility entry is listed as “significantly increased”, the “number of micro-blood vessels” value is recorded as “increased” and the “function of failing heart due to acute coronary ligation” value is reported as “increased”. The “occurrence of arrhythmia induced by acute ischemia” value in data set [4] is recorded as “reduced”. The “LC50 of DOX” value in data set [1] is 92.61 µM. Moreover, the cardiac inflammatory changes entry in data set [5] was “diminished”. In addition, in data set [6], the “effects in term of function and pathology” value is recorded as “Signiant beneficial effects”. Also, in data set [7], the “interstitial collagen deposition (histo-pathology)” value is recorded as “reduced”, the “number of myofibroblasts (histo-pathology)” value is listed as “reduced”, the “size of cardiomyocytes (histo-pathology)” value was “significant reduction” and the cardiac contractility entry was “significantly enhanced”.

As to `C[C@]12CC[C@@H]3C(CC[C@H]4[C@@]3(C)CCC[C@@]4(C)C(=O)O)(C1)[C@H](CO)C2=O` [compound 3, (4R, 4aS, 7R, 9S, 11aS, 11bS)-7-(hydroxymethyl)-4,9, 11b-trimethyl-8-oxotetradecahydro-6a, 9-methanocyclohepta[a]naphthalene-4-carboxylic acid], the “LC50 of DOX” value in data set [1] was 74.83 µM.
